Assay results reported in patent publication US11046680B1, “Heteroaryl-substituted triazoles as APJ receptor agonists” (priority 2016, dated 2021).
pEC50: −log10 of the molar value.

Target: human APJ receptor (Homo sapiens (Human), UniProt P35414)
Assay: biochemical
Format: biochemical
Conditions: [35S]GTPγS binding, CHO membranes expressing human APJ receptor; read-out: Activity hAPJ SPA EC50 IP
In short: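 GTPγS binding on membranes from CHO cells stably expressing FLAG-tagged human APJ, with optimized GDP, MgCl2 and NaCl; incubated 90 min at RT before imaging read-out.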

human APJ receptor, sequence (P35414 whole entry): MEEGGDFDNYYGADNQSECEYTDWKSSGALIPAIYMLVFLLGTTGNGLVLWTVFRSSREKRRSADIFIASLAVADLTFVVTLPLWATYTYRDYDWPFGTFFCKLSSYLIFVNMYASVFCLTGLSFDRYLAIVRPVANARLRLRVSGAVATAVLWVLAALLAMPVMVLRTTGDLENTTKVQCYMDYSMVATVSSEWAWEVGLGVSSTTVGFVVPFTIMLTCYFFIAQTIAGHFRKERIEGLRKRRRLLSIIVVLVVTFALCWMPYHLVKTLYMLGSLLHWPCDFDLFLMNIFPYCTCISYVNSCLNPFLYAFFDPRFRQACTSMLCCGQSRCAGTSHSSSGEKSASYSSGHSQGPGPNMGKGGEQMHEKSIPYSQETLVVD

| Molecule | pEC50 |
| --- | --- |
| COc1cccc(OC)c1-n1c(NS(=O)(=O)[C@H](C)Cc2ncc(F)cn2)nnc1-c1ccn(C)c1 (single isomer, unassigned) [Example 35.0, (R)-N-(4-(2,6-dimethoxyphenyl)-5-(1-methyl-1H-pyrrol-3-yl)-4H-1,2,4-triazol-3-yl)-1-(5-fluoropyrimidin-2-yl)propane-2-sulfonamide or (S)-N-(4-(2,6-dimethoxyphenyl)-5-(1-methyl-1H-pyrrol-3-yl)-4H-1,2,4-triazol-3-yl)-1-(5-fluoropyrimidin-2-yl)propane-2-sulfonamide] | 7.57 |
| COc1ncnc(OC)c1-n1c(NS(=O)(=O)[C@@H](C)[C@H](OC)c2ncc(Cl)cn2)nnc1-c1ccn(C)n1 [Example 450.0, (1R,2S)-1-(5-chloro-2-pyrimidinyl)-N-(4-(4,6-dimethoxy-5-pyrimidinyl)-5-(1-methyl-1H-pyrazol-3-yl)-4H-1,2,4-triazol-3-yl)-1-methoxy-2-propanesulfonamide] | 9.09 |
| COc1cccc(OC)c1-n1c(NS(=O)(=O)[C@H](C)Cc2ncc(F)cn2)nnc1-c1ccncn1 (single isomer, unassigned) [Example 38.0, (R)-N-(4-(2,6-dimethoxyphenyl)-5-(pyrimidin-4-yl)-4H-1,2,4-triazol-3-yl)-1-(5-fluoropyrimidin-2-yl)propane-2-sulfonamide or (R)-N-(4-(2,6-dimethoxyphenyl)-5-(pyrimidin-4-yl)-4H-1,2,4-triazol-3-yl)-1-(5-fluoropyrimidin-2-yl)propane-2-sulfonamide] | 7.08 |
| COc1cncc(-c2nnc(NS(=O)(=O)[C@@H](C)[C@H](OC)c3ncc(C)cn3)n2-c2c(OC)cccc2OC)n1 [Example 343.0, (1R,2S)-N-(4-(2,6-dimethoxyphenyl)-5-(6-methoxy-2-pyrazinyl)-4H-1,2,4-triazol-3-yl)-1-methoxy-1-(5-methyl-2-pyrimidinyl)-2-propanesulfonamide] | 8.59 |
| COc1cccc(OC)c1-n1c(NS(=O)(=O)[C@@H](C)[C@H](OC)c2ncc(F)cn2)nnc1-c1cc(C)[nH]n1 [Example 345.0, (1R,2S)-N-(4-(2,6-dimethoxyphenyl)-5-(5-methyl-1H-pyrazol-3-yl)-4H-1,2,4-triazol-3-yl)-1-(5-fluoro-2-pyrimidinyl)-1-methoxy-2-propanesulfonamide] | 8.09 |
| CC(C)O[C@@H](c1ncc(Cl)cn1)[C@H](C)S(=O)(=O)Nc1nnc(-c2ccn(C)n2)n1C1(C)CC1 [Example 538.0, (1S,2S)-1-(5-chloro-2-pyrimidinyl)-N-(4-(1-methylcyclopropyl)-5-(1-methyl-1H-pyrazol-3-yl)-4H-1,2,4-triazol-3-yl)-1-(2-propanyloxy)-2-propanesulfonamide] | 7.70 |
| COc1cccc(OC)c1-n1c(NS(=O)(=O)[C@H](C)[C@H](O)c2ncc(C)cn2)nnc1-c1nc(C)cs1 (single isomer, unassigned) [Example 315.0, (1R,2R)-N-(4-(2,6-dimethoxyphenyl)-5-(4-methylthiazol-2-yl)-4H-1,2,4-triazol-3-yl)-1-hydroxy-1-(5-methylpyrimidin-2-yl)propane-2-sulfonamide or (1S,2S)-N-(4-(2,6-dimethoxyphenyl)-5-(4-methylthiazol-2-yl)-4H-1,2,4-triazol-3-yl)-1-hydroxy-1-(5-methylpyrimidin-2-yl)propane-2-sulfonamide] | 9.17 |
| COc1cccc(OC)c1-n1c(NS(=O)(=O)CCc2ccc(F)cc2C#N)nnc1-c1csc(C)n1 [Example 148.0, 2-(2-cyano-4-fluorophenyl)-N-(4-(2,6-dimethoxyphenyl)-5-(2-methylthiazol-4-yl)-4H-1,2,4-triazol-3-yl)ethanesulfonamide] | 7.51 |
| COc1cccc(OC)c1-n1c(NS(=O)(=O)[C@@H](C)[C@H](OC)c2ncc(C)cn2)nnc1-c1n[nH]c2ccc(Cl)cc12 [Example 412.0, (1R,2S)-N-(5-(5-chloro-1H-indazol-3-yl)-4-(2,6-dimethoxyphenyl)-4H-1,2,4-triazol-3-yl)-1-methoxy-1-(5-methylpyrimidin-2-yl)propane-2-sulfonamide] | 6.85 |
| CCc1nc(-c2nnc(NS(=O)(=O)CCc3ccc(F)cc3C#N)n2-c2c(OC)cccc2OC)cs1 [Example 154.0, 2-(2-cyano-4-fluorophenyl)-N-(4-(2,6-dimethoxyphenyl)-5-(2-ethylthiazol-4-yl)-4H-1,2,4-triazol-3-yl)ethanesulfonamide] | 7.21 |
| Cc1cnc([C@@H](C)[C@H](C)S(=O)(=O)Nc2nnc(-c3noc4ccccc34)n2C2CCOCC2)nc1 [Example 84.0, (2S,3R)-N-(5-(benzo[d]isoxazol-3-yl)-4-(tetrahydro-2H-pyran-4-yl)-4H-1,2,4-triazol-3-yl)-3-(5-methylpyrimidin-2-yl)butane-2-sulfonamide] | 6.59 |
| COc1cccc(OC)c1-n1c(NS(=O)(=O)C[C@H](OC)c2ccc(Cl)cc2S(C)(=O)=O)nnc1-c1ccn(C)n1 (mixture of isomers) [Example 305.0, (2R)-2-(4-Chloro-2-(methylsulfonyl)phenyl)-N-(4-(2,6-dimethoxyphenyl)-5-(1-methyl-1H-pyrazol-3-yl)-4H-1,2,4-triazol-3-yl)-2-methoxyethanesulfonamide and (2S)-2-(4-chloro-2-(methylsulfonyl)phenyl)-N-(4-(2,6-dimethoxyphenyl)-5-(1-methyl-1H-pyrazol-3-yl)-4H-1,2,4-triazol-3-yl)-2-methoxyethanesulfonamide] | 9.36 |
| COc1ccc(N2CCC2=O)cc1-n1c(NS(=O)(=O)CCc2ccc(Cl)cc2)nnc1-c1cccs1 [Example 126.0, 2-(4-Chlorophenyl)-N-(4-(2-methoxy-5-(2-oxo-1-azetidinyl)phenyl)-5-(2-thiophenyl)-4H-1,2,4-triazol-3-yl)ethanesulfonamide] | 7.96 |
| C[C@H](c1ncc(Cl)cn1)[C@H](C)S(=O)(=O)Nc1nnc(-c2ccn(C)n2)n1-c1c(F)cccc1F [Example 228.0, (2S,3R)-3-(5-chloro-2-pyrimidinyl)-N-(4-(2,6-difluorophenyl)-5-(1-methyl-1H-pyrazol-3-yl)-4H-1,2,4-triazol-3-yl)-2-butanesulfonamide] | 8.40 |
| COc1cccc(OC)c1-n1c(NS(=O)(=O)CCc2ncc(F)cn2)nnc1-c1nc(C(C)C)cs1 [Example 96.0, N-(4-(2,6-dimethoxyphenyl)-5-(4-isopropylthiazol-2-yl)-4H-1,2,4-triazol-3-yl)-2-(5-fluoropyrimidin-2-yl)ethanesulfonamide] | 8.15 |
| COc1cccc(OC)c1-n1c(NS(=O)(=O)[C@@H](C)[C@H](OC)c2ncc(C)cn2)nnc1-c1n[nH]c2ccc(F)cc12 [Example 437.0] | 6.72 |
| CCc1csc(-c2nnc(NS(=O)(=O)CCc3ncc(F)cn3)n2-c2c(OC)cccc2OC)n1 [Example 97.0, N-(4-(2,6-dimethoxyphenyl)-5-(4-ethylthiazol-2-yl)-4H-1,2,4-triazol-3-yl)-2-(5-fluoropyrimidin-2-yl)ethanesulfonamide] | 8.15 |
| COc1cccc(OC)c1-n1c(NS(=O)(=O)[C@H](C)Cc2ccc(C#N)cn2)nnc1-c1nc(C)cs1 (single isomer, unassigned) [Example 11.0, (2R)-1-(5-cyano-2-pyridinyl)-N-(4-(2,6-dimethoxyphenyl)-5-(4-methyl-1,3-thiazol-2-yl)-4H-1,2,4-triazol-3-yl)-2-propanesulfonamide or (2S)-1-(5-cyano-2-pyridinyl)-N-(4-(2,6-dimethoxyphenyl)-5-(4-methyl-1,3-thiazol-2-yl)-4H-1,2,4-triazol-3-yl)-2-propanesulfonamide] | 9.10 |
| (2R,3R)-3-(5-Cyanopyrimidin-2-yl)-N-(4-(2,6-dimethoxyphenyl)-5-(4-methylthiazol-2-yl)-4H-1,2,4-triazol-3-yl)-3-fluorobutane-2-sulfonamide and (2S,3S)-3-(5-cyanopyrimidin-2-yl)-N-(4-(2,6-dimethoxyphenyl)-5-(4-methylthiazol-2-yl)-4H-1,2,4-triazol-3-yl)-3-fluorobutane-2-sulfonamide [Example 321.0] | 8.80 |
| COCC[C@@H]([C@H](C)c1ncc(F)cn1)S(=O)(=O)Nc1nnc(-c2nc(C)cs2)n1-c1c(OC)cccc1OC (single isomer, unassigned) [Example 21.0] | 7.05 |
| COc1cccc(OC)c1-n1c(NS(=O)(=O)[C@@H](C)Cc2ncc(C)cn2)nnc1-c1nc(C)cs1 (single isomer, unassigned) [Example 9.0, (2S)-N-(4-(2,6-dimethoxyphenyl)-5-(4-methyl-1,3-thiazol-2-yl)-4H-1,2,4-triazol-3-yl)-1-(5-methyl-2-pyrimidinyl)-2-propanesulfonamide or (2R)-N-(4-(2,6-dimethoxyphenyl)-5-(4-methyl-1,3-thiazol-2-yl)-4H-1,2,4-triazol-3-yl)-1-(5-methyl-2-pyrimidinyl)-2-propanesulfonamide] | 7.96 |
| COc1cccc(OC)c1-n1c(NS(=O)(=O)[C@@H](C)[C@H](C)c2ncc(Cl)cn2)nnc1-c1cc2n(n1)CCC2 [Example 221.0, (2S,3R)-3-(5-chloro-2-pyrimidinyl)-N-(5-(5,6-dihydro-4H-pyrrolo[1,2-b]pyrazol-2-yl)-4-(2,6-dimethoxyphenyl)-4H-1,2,4-triazol-3-yl)-2-butanesulfonamide] | 9.49 |
| COc1cnc([C@@H](C)[C@H](C)S(=O)(=O)Nc2nnc(-c3ccn(C)n3)n2-c2c(OC)ncnc2OC)cn1 [Example 292.0, (2S,3R)-N-(4-(4,6-dimethoxy-5-pyrimidinyl)-5-(1-methyl-1H-pyrazol-3-yl)-4H-1,2,4-triazol-3-yl)-3-(5-methoxy-2-pyrazinyl)-2-butanesulfonamide] | 8.92 |
| COc1ccccc1-n1c(NS(=O)(=O)Cc2ccc(Cl)cc2)nnc1-c1ccc(F)s1 [Example 235.0, 1-(4-chlorophenyl)-N-(5-(5-fluoro-2-thiophenyl)-4-(2-methoxyphenyl)-4H-1,2,4-triazol-3-yl)methanesulfonamide] | < 4.90 |
